Where two headings read alike, the source gives them in different places. Marks after values point to notes of the source that are not given here.
What was measured:
HNT-34 cells = assay: Apoptosis (caspase 3/7 activation), HNT-34; format: cell-based, human; conditions: for EC50: Homo sapiens, read-out: Compound D-induced Apoptosis EC50
IKZF1 = IKZF1 (Homo sapiens, UniProt Q13422+Q96SW2); conditions: NB4 cell line
p-eIF2α = p-eIF2α immunoblot, OCI-AML2; format: cell-based, human; conditions: 300 μg/ml G418 or 200 nM Compound D
Method: (§1) It is known that amino acid starvation causes GCN2 activation, which phosphorylates eIF2α. Because GSPT1 mediates normal translation termination, it is hypothesized that depletion of GSPT1 by Compound D may cause readthrough of stop codons. Whether the translational readthrough induced by Compound D contributes to the increased levels of p-eIF2α was investigated. OCI-AML2 cells stably expressing the Fluc/Nluc-G36A readthrough reporter were treated with 300 μg/ml G418 or 200 nM Compound D for 2, 4, 6, 8, 10, 12, or 16 hours. The levels of p-eIF2α were measured by immunoblot analysis. AML2 readthrough assay was conducted to measure the readthrough reporter.

KG-1 cells = assay: Apoptosis (caspase 3/7 activation), KG-1; format: cell-based, human; conditions: for EC50: Homo sapiens, read-out: Compound D-induced Apoptosis EC50
[1] = tested on: ATF3, DDIT3, cleaved Caspases, cleaved PARP; assay: UPR and apoptosis pathway components in KG1 cells; format: cell-based, human; conditions: KG1, 200 nM
Method: Cells were treated with DMSO alone or 200 nM Compound D. After 2, 4, or 6 hours, the expression levels of various cellular components along UPR or apoptosis pathways were measured. […] Reduction of BIP indicates UPR.
Cells were treated with DMSO alone, 200 nM Compound D, or 200 nM Compound E. After 8 or 12 hours, the expression levels of various cellular components along UPR or apoptosis pathways were measured. […] Reduction of BIP indicates UPR.
To further investigate the timeline of cellular events upon Compound D treatment, KG1 cells were treated with DMSO alone or 200 nM Compound D. At 2, 4, 6, 8, 10, or 12 hours, the expression levels of various cellular components along ATF4 or apoptosis pathways were measured.

NB-4 cells = assay: Anti-proliferation 72-hour CTG assay, NB-4; format: cell-based; conditions: Homo sapiens; NB-4, 72-hour CTG assay; read-out: IC50 of the anti-proliferative effect
Method: (§2) A plethora of AML cell lines were treated with serial dilutions of Compound D. IC50 value of the anti-proliferation effect of Compound D (as determined in 72-hour CTG assays) in each cell line is summarized in Table 1.

GSPT1 [2] = target: T1, GSPT1 (Homo sapiens, UniProt P15170+Q96SW2); assay: GSPT1 degradation, western blot, MOLM-13; format: cell-based; design: endogenous in cells; conditions: 100 nM
Excerpt: Thus, Compound D-induced GSPT1 degradation is also CRBN-dependent.

MOLM-13 cells = assay: Anti-proliferation CTG assay, MOLM-13; format: cell-based, human
Method: as §2
(§3) The effect of overexpression of GSPT1 on the anti-proliferative effect of Compound D and Compound E was determined in human histiocytic lymphoma cell line U937 and human leukemia cell line MOLM13. Treatment compounds (e.g., Compound D or Compound E) were titrated from 0.001 μM to 10 μM. Cell proliferation was measured by CellTiter-Glo cell viability assay at 48 hours after treatment. […] However, when exogenous GSPT1 was overproduced via the EF1α promoter, as shown in FIGS. 5A-5D, the anti-proliferative effect of Compound D and Compound E reduced.

[3] = tested on: translational readthrough; assay: AML2 readthrough assay (Fluc/Nluc-G36A reporter), OCI-AML2; format: cell-based, human; conditions: 300 μg/ml G418 or 200 nM Compound D
Method: as §1

HL-60 cells = assay: Apoptosis (caspase 3/7 activation), HL-60; format: cell-based, human; conditions: for EC50: Homo sapiens, read-out: Compound D-induced Apoptosis EC50
MV-4-11 cells = assay: Anti-proliferation 72-hour CTG assay, MV-4-11; format: cell-based; conditions: Homo sapiens, MV4-11; MV-4-11, 72-hour CTG assay; read-out: IC50 of the anti-proliferative effect
Method: as §2

GSPT1 [4] = target: T1, GSPT1; assay: GSPT1 protein reduction, western analysis, F36-P; format: cell-based; design: reduction in GSPT1 protein level was evaluated in human normal PBMCs; endogenous in cells; host or cells: primary PBMCs from normal donors (ID 4328, 4379) and AML patients (ID 11SH, 09P6)
Method: The time course of the reduction in GSPT1 by Compound D also was studied for up to 48 hours. The progressive degradation of GSPT1 over the course of 1 to 20 hours was evident in the presence of all concentrations of Compound D studied from 3 to 300 nM in HNT-34, HL-60, and ML-2 cells, with little GSPT1 remaining by 20 hours at 100 or 300 nM Compound D in HNT-34 or HL-60 cells (FIG. 34 and FIG. 35C). Time-dependent reduction in GSPT1 was also observed in KG-1 and OCI-AML2 cells at 3 to 1000 nM Compound D, with little GSPT1 remaining in KG-1 cells at 100 to 300 nM at 24 hours or in OCI-AML2 cells at 300 and 1000 nM at 24 hours (FIG. 35D). Loss of GSPT1 occurred more slowly in Kasumi-1, AML-193, and […] cells. […] A positive association (r^2=0.50; […]

U-937 cells = assay: Anti-proliferation CTG assay, U-937; format: cell-based, human
Method: as §2, §3

T1 sequence (P15170 1-637 isoform P15170-3): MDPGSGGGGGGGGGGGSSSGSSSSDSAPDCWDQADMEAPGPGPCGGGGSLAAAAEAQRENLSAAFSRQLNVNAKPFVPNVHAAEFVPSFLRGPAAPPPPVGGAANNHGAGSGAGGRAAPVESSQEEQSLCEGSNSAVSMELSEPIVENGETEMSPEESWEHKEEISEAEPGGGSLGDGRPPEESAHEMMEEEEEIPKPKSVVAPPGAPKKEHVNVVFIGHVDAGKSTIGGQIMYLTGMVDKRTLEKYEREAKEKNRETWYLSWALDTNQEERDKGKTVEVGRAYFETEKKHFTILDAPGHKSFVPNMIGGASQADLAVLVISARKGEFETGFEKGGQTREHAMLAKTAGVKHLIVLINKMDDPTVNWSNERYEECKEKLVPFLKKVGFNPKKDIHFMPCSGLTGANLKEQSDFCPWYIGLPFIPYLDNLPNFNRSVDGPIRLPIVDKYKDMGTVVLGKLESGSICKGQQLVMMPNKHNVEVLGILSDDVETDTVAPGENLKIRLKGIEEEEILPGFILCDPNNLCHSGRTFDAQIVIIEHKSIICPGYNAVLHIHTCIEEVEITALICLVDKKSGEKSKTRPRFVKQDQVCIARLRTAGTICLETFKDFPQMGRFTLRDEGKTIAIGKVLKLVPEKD
T1 sequence (Q96SW2 whole entry): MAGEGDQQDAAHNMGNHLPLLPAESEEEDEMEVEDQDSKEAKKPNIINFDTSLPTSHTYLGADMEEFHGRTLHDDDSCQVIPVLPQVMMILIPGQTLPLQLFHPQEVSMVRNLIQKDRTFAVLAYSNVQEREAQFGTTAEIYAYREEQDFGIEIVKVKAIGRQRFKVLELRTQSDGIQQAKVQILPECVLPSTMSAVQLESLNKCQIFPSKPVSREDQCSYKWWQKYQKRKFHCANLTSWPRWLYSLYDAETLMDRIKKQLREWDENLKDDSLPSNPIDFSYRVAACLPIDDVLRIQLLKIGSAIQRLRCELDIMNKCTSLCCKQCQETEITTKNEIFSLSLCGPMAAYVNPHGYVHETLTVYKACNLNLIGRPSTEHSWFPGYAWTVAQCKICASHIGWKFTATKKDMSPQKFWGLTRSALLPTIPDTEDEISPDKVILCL
T1 sequence (Q16531 whole entry partner): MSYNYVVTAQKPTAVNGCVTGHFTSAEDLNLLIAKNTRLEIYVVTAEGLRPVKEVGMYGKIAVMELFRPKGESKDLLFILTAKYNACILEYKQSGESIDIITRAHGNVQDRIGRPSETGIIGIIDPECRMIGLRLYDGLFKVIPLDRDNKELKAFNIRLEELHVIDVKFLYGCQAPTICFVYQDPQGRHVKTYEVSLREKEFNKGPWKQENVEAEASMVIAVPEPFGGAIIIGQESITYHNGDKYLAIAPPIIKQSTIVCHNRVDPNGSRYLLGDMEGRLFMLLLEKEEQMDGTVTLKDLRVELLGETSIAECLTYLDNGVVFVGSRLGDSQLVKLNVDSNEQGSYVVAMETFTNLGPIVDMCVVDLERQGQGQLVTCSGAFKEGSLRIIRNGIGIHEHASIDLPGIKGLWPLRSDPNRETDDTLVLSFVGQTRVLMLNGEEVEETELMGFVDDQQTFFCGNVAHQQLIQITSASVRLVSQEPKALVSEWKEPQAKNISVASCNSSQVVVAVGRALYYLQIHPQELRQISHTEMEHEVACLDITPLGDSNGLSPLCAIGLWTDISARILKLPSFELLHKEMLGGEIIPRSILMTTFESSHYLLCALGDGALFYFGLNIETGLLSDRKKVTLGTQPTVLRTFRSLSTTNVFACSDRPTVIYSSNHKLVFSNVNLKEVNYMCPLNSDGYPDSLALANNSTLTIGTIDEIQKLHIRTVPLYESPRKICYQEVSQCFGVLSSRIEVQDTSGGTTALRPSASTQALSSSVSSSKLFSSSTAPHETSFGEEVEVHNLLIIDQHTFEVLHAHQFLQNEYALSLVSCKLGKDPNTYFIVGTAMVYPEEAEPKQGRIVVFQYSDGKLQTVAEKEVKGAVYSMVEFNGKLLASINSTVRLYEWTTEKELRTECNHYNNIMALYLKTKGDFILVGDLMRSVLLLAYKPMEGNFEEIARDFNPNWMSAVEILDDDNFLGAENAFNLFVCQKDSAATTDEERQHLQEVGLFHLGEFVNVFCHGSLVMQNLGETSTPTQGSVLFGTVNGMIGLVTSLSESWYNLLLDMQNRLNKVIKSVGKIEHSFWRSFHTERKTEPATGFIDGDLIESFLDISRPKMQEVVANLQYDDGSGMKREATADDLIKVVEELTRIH
Sequence of IKZF1 (Q13422 whole entry): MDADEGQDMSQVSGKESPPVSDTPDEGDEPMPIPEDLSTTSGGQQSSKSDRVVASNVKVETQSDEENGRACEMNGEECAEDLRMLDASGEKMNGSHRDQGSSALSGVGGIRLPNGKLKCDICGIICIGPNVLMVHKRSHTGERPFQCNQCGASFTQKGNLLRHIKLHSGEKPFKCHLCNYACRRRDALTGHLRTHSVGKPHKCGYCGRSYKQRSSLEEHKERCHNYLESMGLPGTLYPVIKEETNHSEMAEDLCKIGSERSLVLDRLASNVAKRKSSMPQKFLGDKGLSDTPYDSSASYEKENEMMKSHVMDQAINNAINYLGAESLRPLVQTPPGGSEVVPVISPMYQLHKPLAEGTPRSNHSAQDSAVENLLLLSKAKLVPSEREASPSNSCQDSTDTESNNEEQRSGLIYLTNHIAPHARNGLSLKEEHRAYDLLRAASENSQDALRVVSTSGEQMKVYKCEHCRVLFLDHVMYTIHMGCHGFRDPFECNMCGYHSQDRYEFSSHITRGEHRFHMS
Sequence of IKZF1 (Q96SW2 whole entry): as the sequence (Q96SW2 whole entry) above
Sequence of IKZF1 (Q16531 whole entry partner): as the sequence (Q16531 whole entry partner) above

O=C1CCC(N2Cc3cc(CNC(=O)C(F)(F)c4ccc(Cl)cc4)ccc3C2=O)C(=O)N1 (centres unmarked) [Compound D, 2-(4-chlorophenyl)-N-((2-(2,6-dioxopiperidin-3-yl)-1-oxoisoindolin-5-yl)methyl)-2,2-difluoroacetamide]
Average Percent Increase in Apoptosis at 123 nM Compound D, Apoptosis (12 hr) (HNT-34 cells; HNT-34, 123 nM, 12 hr): 3% | Average Percent Increase in Apoptosis at 123 nM Compound D, Apoptosis (24 hr) (HNT-34 cells; HNT-34, 123 nM, 24 hr): 12% | Average Percent Increase in Apoptosis at 123 nM Compound D, Apoptosis (48 hr) (HNT-34 cells; HNT-34, 123 nM, 48 hr): 32% | EC50 (HNT-34 cells; HNT-34, 24 hr): 0.007 µM | EC50 (HNT-34 cells; HNT-34, 48 hr): 0.004 µM | EC50 (HNT-34 cells; HNT-34, 96 hr): 0.002 µM | effect on IKZF1 level (IKZF1): induced degradation | levels of p-eIF2α (p-eIF2α): increased the levels | EC50 (KG-1 cells; KG-1, 12 hr): 0.053 µM | EC50 (KG-1 cells; KG-1, 48 hr): 0.039 µM | EC50 (KG-1 cells; KG-1, 72 hr): 0.026 µM | EC50 (KG-1 cells; KG-1, 96 hr): 0.025 µM | average percent increase in apoptosis (KG-1 cells; KG-1, 41 nM, 24 hour time point): 11% | Average Percent Increase in Apoptosis at 123 nM Compound D, Apoptosis (12 hr) (KG-1 cells; KG-1, 123 nM, 12 hr): 2% | Average Percent Increase in Apoptosis at 123 nM Compound D, Apoptosis (24 hr) (KG-1 cells; KG-1, 123 nM, 24 hr): 16% | Average Percent Increase in Apoptosis at 123 nM Compound D, Apoptosis (48 hr) (KG-1 cells; KG-1, 123 nM, 48 hr): 42% | time at which levels of apoptotic markers started to increase [1]: approximately 6 hrs | level of ATF3, DDIT3, cleaved Caspase-3, cleaved Caspase-8, and cleaved PARP ([1]; 8 or 12 hours): increased the level | IC50 (NB-4 cells): 0.017 µM | degradation of GSPT1 (GSPT1 [2]; CRBN -/- MOLM-13 cells): could not induce degradation | degradation of GSPT1 (GSPT1 [2]; parental MOLM-13 cells): induced degradation | IC50 (MOLM-13 cells; Homo sapiens, MOLM-13, 72-hour CTG assay, read-out: IC50 of the anti-proliferative effect): 0.075 µM | anti-proliferative effect (MOLM-13 cells; MOLM13 CRBN -/- cells, 48 hours): completely abolished | cell proliferation (CellTiter-Glo) (MOLM-13 cells; MOLM13 parental cells, 0.001 μM to 10 μM, 48 hours): inhibited cell proliferation | translational readthrough [3]: induced translational readthrough at a comparable level | average percent increase in apoptosis (HL-60 cells; HL-60, 41 nM, 24 hour time-point): 9% | Average Percent Increase in Apoptosis at 123 nM Compound D, Apoptosis (12 hr) (HL-60 cells; HL-60, 123 nM, 12 hr): 1% | Average Percent Increase in Apoptosis at 123 nM Compound D, Apoptosis (24 hr) (HL-60 cells; HL-60, 123 nM, 24 hr): 19% | Average Percent Increase in Apoptosis at 123 nM Compound D, Apoptosis (48 hr) (HL-60 cells; HL-60, 123 nM, 48 hr): 62% | EC50 (HL-60 cells; HL-60, 24 hr): 0.073 µM | EC50 (HL-60 cells; HL-60, 48 hr): 0.015 µM | EC50 (HL-60 cells; HL-60, 72 hr): 0.008 µM | IC50 (MV-4-11 cells): 0.029 µM | Percent Reduction at 100 nM Compound D GSPTI (8 hr) (GSPT1 [4]; 100 nM, 8 hr, change not concentration-dependent at the 8-hour time point): 39^a % | GSPT1 reduction (GSPT1 [4]; 300 nM Compound D, 8 hours): 18% | IC50 (U-937 cells; Homo sapiens, U-937, 72-hour CTG assay, read-out: IC50 of the anti-proliferative effect): 0.074 µM | anti-proliferative effect (U-937 cells; U937 CRBN -/- cells, 48 hours): completely abolished | cell proliferation (CellTiter-Glo) (U-937 cells; U937 parental cells, 0.001 μM to 10 μM, 48 hours): inhibited cell proliferation

— US12474342B2, “Methods for treating cancer and the use of biomarkers as a predictor of clinical sensitivity to therapies” (CELGENE CORPORATION, priority 2016, dated 2025)
